Measurements: patent publication US11834417B2, “Compositions for the treatment of hypertension and/or fibrosis” (Vectus Biosystems Limited, priority 2016, dated 2023)

What was measured:
[1] = test system: spontaneous hypertensive rats (SHR); test: Systolic blood pressure by tail cuff plethysmography in SHR on a 2.2% salt diet; assay type: in vivo, rat
Source text: Fourteen week old spontaneous hypertensive rats (SHR; Australian Animal Resources Centre, WA) on a 2.2% salt diet (Glenn Forrest Stockfeeders, WA) were randomized to the following treatment groups: 14-week control, or VB0002 infusion (20 pmol/kg/min in 20% DMSO) or vehicle control infusion (20% DMSO) for 4 weeks. VB0002 and vehicle control infusions were via Alzet osmotic minipump, which was inserted under general anaesthesia (Isoflurane 3% in oxygen) at 14 weeks. […]
(§1) The 14-week control group were anaesthetized using isoflurane (3%) delivered in oxygen, then had blood sampled and hearts and kidneys harvested for quantitation of fibrosis. The remaining groups were weighed and had blood pressure measured by tail cuff plethysmography (ADI Instruments) twice weekly for a further 4 weeks. After 4 weeks treatment, rats were anaesthetized and samples collected as per the 14-week control group. Results are mean±sem for n=5 rats per group.

[2] = test system: spontaneous hypertensive rats (SHR); test: Myocardial fibrosis quantitation (Masson's Trichrome) in SHR on a 2.2% salt diet; assay type: in vivo, rat; conditions: 4 weeks
Source text: Fourteen week old spontaneous hypertensive rats (SHR; Australian Animal Resources Centre, WA) on a 2.2% salt diet (Glenn Forrest Stockfeeders, WA) were randomized to the following treatment groups: 14-week control, or VB0002 infusion (20 pmol/kg/min in 20% DMSO) or vehicle control infusion (20% DMSO) for 4 weeks. VB0002 and vehicle control infusions were via Alzet osmotic minipump, which was inserted under general anaesthesia (Isoflurane 3% in oxygen) at 14 weeks.
Fourteen week old spontaneous hypertensive rats on a 2.2% salt diet were also randomized to the following treatment groups: 14-week control, or VB0003 administration (10, 100 or 500 pmol/kg/min in 5% ethanol), VB0005 administration (100 pmol/kg/min in 5% ethanol) or drinking solution (5% ethanol) administration for 4 weeks.
as §1
For quantitation of fibrosis, tissue slices ≤3 mm thick were fixed in 10% buffered formalin for 24 hours, processed and embedded in paraffin. Three μm transverse sections were stained using Masson's Trichrome. A minimum of 20 random fields at 40× magnification from transverse sections ([…]) were digitized. The degree of fibrosis was determined as a percent of field area of each digitized image using Image-Pro Plus V.5 (Media Cybernetics, Bethesda, Md., USA), and then averaged to determine the level of fibrosis for each rat.

[3] = in 5% ethanol in the drinking solution for 4 weeks (FIG. 9:), compared to 18 week controls (p<0.0005)
[4] = 100 pmol/kg/min in drinking solution (5% ethanol), compared to 14 week controls
[5] = 100 pmol/kg/min in drinking solution (5% ethanol), compared to 18 week controls

| Structure (SMILES) | Systolic blood pressure [1, 3] | Myocardial fibrosis ([2]; 10 pmol/kg/min in drinking solution (5% ethanol), compared to 18 week controls) | Myocardial fibrosis [2, 4] | Myocardial fibrosis [2, 5] | Myocardial fibrosis ([2]; 500 pmol/kg/min in drinking solution (5% ethanol), compared to 14 week controls) | Myocardial fibrosis ([2]; 500 pmol/kg/min in drinking solution (5% ethanol), compared to 18 week controls) | Systolic blood pressure ([1]; in 20% DMSO intravenously via osmotic minipump for 4 weeks, compared to 18 week controls (FIG. 8, p<0.005)) | Myocardial fibrosis ([2]; 20 pmol/kg/min infusion via osmotic minipump, compared to 14 week controls (FIG. 10)) | Myocardial fibrosis ([2]; 20 pmol/kg/min infusion via osmotic minipump, compared to 18 week controls (FIG. 10)) | melting point |
| --- | --- | --- | --- | --- | --- | --- | --- | --- | --- | --- |
| CC(O)Cc1c(-c2ccccc2)ncn1Cc1cccc(O)c1 (centres unmarked) [VB0003, 3-[5-(2-hydroxypropyl)-4-phenyl-imidazol-1-ylmethyl]-phenol] | reduced | reduced | reduced | reduced | reduced | reduced |  |  |  |  |
| NC(=O)Cc1c(Cc2ccccc2)ncn1Cc1cccc(O)c1 [VB0002, 2-[4-Benzyl-1-(3-hydroxybenzyl)-1H-imidazol-5-yl]acetamide] |  |  |  |  |  |  | reduced | reduced | reduced | 249 °C (dec.) |
| CC(O)Cc1c(-c2ccccc2)ncn1Cc1cccc(O)c1.Cl (centres unmarked) |  |  |  |  |  |  |  |  |  | 84 to 88 °C |
| NC(=O)CC[C@H]1CN(c2ccccc2)CCN1c1cccc(O)c1 [VB0005, (S)-3-[1-(3-Hydroxy)phenyl-4-phenylpiperazin-2-yl]propanamide] | reduced |  | reduced | reduced |  |  |  |  |  |  |
